The results in this text go back to paper PMC12102759 (Protein Science : A Publication of the Protein Society, 2025).

The first assay has as its system G3BP1 NFT2. The class given is binding, human. Particulars: library DMS-CoV; bait G3BP1 NFT2; prey N; peptide APRITFGGPSDSTGSN; listed as aa = residue placed at this position; column sums to 1.
“APRITFGGPSDSTGSN S12E (APRITFGGPSDETGSN)”: the “DMS PSSM value, S (position 12)” value stood at 0.0009188.
Consider “APRITFGGPSDSTGSN G14T (APRITFGGPSDSTTSN)”, for which the “DMS PSSM value, G (position 14)” value was determined as 0.007708.
Consider “APRITFGGPSDSTGSN T13V (APRITFGGPSDSVGSN)”, for which the “DMS PSSM value, T (position 13)” value was found to be 0.7895.

Staying with this assay, now noted: library DMS-CoV; bait G3BP1 NFT2; prey N; peptide RNAPRITFGGPSDSTG; listed as aa = residue placed at this position; column sums to 1.
For the sequence RNAPRITFGGPSDSTG P4A (RNAARITFGGPSDSTG), the “DMS PSSM value, P (position 4)” value came to 0.
On to “RNAPRITFGGPSDSTG D13I (RNAPRITFGGPSISTG)”, for which the “DMS PSSM value, D (position 13)” value is 0.
As to RNAPRITFGGPSDSTG I6N (RNAPRNTFGGPSDSTG), the “DMS PSSM value, I (position 6)” value is listed as 0.
For the sequence RNAPRITFGGPSDSTG F8V (RNAPRITVGGPSDSTG), the “DMS PSSM value, F (position 8)” value was 0.
As for RNAPRITFGGPSDSTG P4F (RNAFRITFGGPSDSTG), the “DMS PSSM value, P (position 4)” value is listed as 0.
In the case of RNAPRITFGGPSDSTG I6M (RNAPRMTFGGPSDSTG), the “DMS PSSM value, I (position 6)” value worked out at 0.
Take RNAPRITFGGPSDSTG F8I (RNAPRITIGGPSDSTG): the “DMS PSSM value, F (position 8)” value is reported as 0.
As for “RNAPRITFGGPSDSTG T15E (RNAPRITFGGPSDSEG)”, the “DMS PSSM value, T (position 15)” value is 0.
On to RNAPRITFGGPSDSTG T7E (RNAPRIEFGGPSDSTG), for which the “DMS PSSM value, T (position 7)” value is 1.
For RNAPRITFGGPSDSTG I6T (RNAPRTTFGGPSDSTG), the “DMS PSSM value, I (position 6)” value is reported as 0.
On to RNAPRITFGGPSDSTG F8Y (RNAPRITYGGPSDSTG), for which the “DMS PSSM value, F (position 8)” value was 0.
“RNAPRITFGGPSDSTG S14E (RNAPRITFGGPSDETG)”: the “DMS PSSM value, S (position 14)” value worked out at 0.
With “RNAPRITFGGPSDSTG S12P (RNAPRITFGGPPDSTG)”, the “DMS PSSM value, S (position 12)” value is reported as 0.
Consider RNAPRITFGGPSDSTG I6P (RNAPRPTFGGPSDSTG), for which the “DMS PSSM value, I (position 6)” value is listed as 0.
As for RNAPRITFGGPSDSTG T7W (RNAPRIWFGGPSDSTG), the “DMS PSSM value, T (position 7)” value is 0.
In the case of RNAPRITFGGPSDSTG P4D (RNADRITFGGPSDSTG), the “DMS PSSM value, P (position 4)” value is given as 0.
Regarding “RNAPRITFGGPSDSTG G10N (RNAPRITFGNPSDSTG)”, the “DMS PSSM value, G (position 10)” value worked out at 0.
Take RNAPRITFGGPSDSTG N2D (RDAPRITFGGPSDSTG): the “DMS PSSM value, N (position 2)” value was 0.4666.
On to “RNAPRITFGGPSDSTG D13P (RNAPRITFGGPSPSTG)”, for which the “DMS PSSM value, D (position 13)” value stood at 1.
On to RNAPRITFGGPSDSTG A3V (RNVPRITFGGPSDSTG), for which the “DMS PSSM value, A (position 3)” value came out at 0.
On to “RNAPRITFGGPSDSTG G10T (RNAPRITFGTPSDSTG)”, for which the “DMS PSSM value, G (position 10)” value came out at 0.
The same measure, in the same setting: the value for “RNAPRITFGGPSDSTG G10I (RNAPRITFGIPSDSTG)” was 0.
Consider RNAPRITFGGPSDSTG F8L (RNAPRITLGGPSDSTG), for which the “DMS PSSM value, F (position 8)” value turned out to be 0.
As to RNAPRITFGGPSDSTG F8G (RNAPRITGGGPSDSTG), the “DMS PSSM value, F (position 8)” value stood at 0.
Turning to RNAPRITFGGPSDSTG A3Y (RNYPRITFGGPSDSTG), the “DMS PSSM value, A (position 3)” value is 0.
Take “RNAPRITFGGPSDSTG S14R (RNAPRITFGGPSDRTG)”: the “DMS PSSM value, S (position 14)” value is 0.
For RNAPRITFGGPSDSTG I6A (RNAPRATFGGPSDSTG), the “DMS PSSM value, I (position 6)” value is given as 0.
With RNAPRITFGGPSDSTG T7F (RNAPRIFFGGPSDSTG), the “DMS PSSM value, T (position 7)” value stood at 0.
Take “RNAPRITFGGPSDSTG G16Y (RNAPRITFGGPSDSTY)”: the “DMS PSSM value, G (position 16)” value came to 0.
RNAPRITFGGPSDSTG R5F (RNAPFITFGGPSDSTG): the “DMS PSSM value, R (position 5)” value amounted to 0.
As to RNAPRITFGGPSDSTG A3N (RNNPRITFGGPSDSTG), the “DMS PSSM value, A (position 3)” value amounted to 0.
Regarding RNAPRITFGGPSDSTG I6R (RNAPRRTFGGPSDSTG), the “DMS PSSM value, I (position 6)” value is recorded as 0.
Regarding RNAPRITFGGPSDSTG T7V (RNAPRIVFGGPSDSTG), the “DMS PSSM value, T (position 7)” value is 0.
As for “RNAPRITFGGPSDSTG P11D (RNAPRITFGGDSDSTG)”, the “DMS PSSM value, P (position 11)” value is given as 0.
As for “RNAPRITFGGPSDSTG T15R (RNAPRITFGGPSDSRG)”, the “DMS PSSM value, T (position 15)” value is listed as 0.
Take “RNAPRITFGGPSDSTG P11E (RNAPRITFGGESDSTG)”: the “DMS PSSM value, P (position 11)” value is given as 0.
On to “RNAPRITFGGPSDSTG T15N (RNAPRITFGGPSDSNG)”, for which the “DMS PSSM value, T (position 15)” value was determined as 0.
RNAPRITFGGPSDSTG P4K (RNAKRITFGGPSDSTG): the “DMS PSSM value, P (position 4)” value worked out at 0.
As for RNAPRITFGGPSDSTG A3L (RNLPRITFGGPSDSTG), the “DMS PSSM value, A (position 3)” value came out at 0.
With “RNAPRITFGGPSDSTG D13T (RNAPRITFGGPSTSTG)”, the “DMS PSSM value, D (position 13)” value stood at 0.
With RNAPRITFGGPSDSTG N2Q (RQAPRITFGGPSDSTG), the “DMS PSSM value, N (position 2)” value turned out to be 0.
For the sequence “RNAPRITFGGPSDSTG S14L (RNAPRITFGGPSDLTG)”, the “DMS PSSM value, S (position 14)” value amounted to 0.
In the case of RNAPRITFGGPSDSTG A3T (RNTPRITFGGPSDSTG), the “DMS PSSM value, A (position 3)” value was found to be 0.
